Holding throughout (experiment): inhibition of tumour cell growth, NCI panel, 48 h
Test [1] relates to A549 NSCLC.
Test [2] has as its system EKVX NSCLC.
For test [3], the system named is HCT-116 colon.
The test system of test [4] is HT29 colon.
Test [5] has as its system MALME-3M melanoma.
Test [6] has as its system MDA-MB-435.
Test [7] relates to NCI-H23 lung.
Test [8] has as its system OVCAR-3 ovarian.
The subject of test [9] is OVCAR-5 ovarian.
Test [10] has as its system SF-295 CNS.
The subject of test [11] is SF-539 CNS.
Test [12] has as its system SK-OV-3 ovarian.
Test [13] has as its system SN12C renal.
Test [14] has as its system SR leukemia.
Test [15] concerns SW-620 colon.
Test [16] has as its system TK-10 renal.
The test system of test [17] is UACC-257 melanoma.
Test [18] has as its system UACC-62 melanoma.
Test [19] has as its system NCI-H522 lung.

16 compounds from PubChem BioAssay (NCI) can be followed below.

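Test compounds were applied to cells in 96-well plates for 48 hours at 5 doses. TGI marks complete inhibition of growth.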 Where only a bound is given, the exact number is not on record here.

For `O=C1CCCC1CN1CCCC1` (centres undefined), the TGI is more than 100 µM in test [1]; 42.8 µM in test [2]; 11.7 µM in [3]; more than 59.7 µM in test [4]; 3.72 µM in [5]; 26.3 µM in [6]. Further, the TGI in test [7] is 31.3 µM; in [8], 28.9 µM; in [9], 32.4 µM; in test [10], more than 100 µM; in [11], 36.7 µM; in [12] it was 27.7 µM. The TGI came out at 32.6 µM in test [13]; 1.16 µM in test [14]; 11.3 µM in test [15]; 25.1 µM in [16]; 30.9 µM in test [17]; 32.6 µM in test [18].
Turning to `COC(=O)C1=C(O)C(C(=O)OC)[C@]2(O)[C@H](C(=O)OC)[C@H]1C[C@@H](c1ccc(C(F)(F)F)cc1)[C@H]2C(=O)OC` (some centres undefined), the TGI in [1] is more than 100 µM; in [2] it was 32.4 µM; in [3] it was 5.96 µM; in [4] it was 25.1 µM; in test [5] it was 22.4 µM; in test [6] it was more than 100 µM. In addition, the TGI in [7] was 21.7 µM; in test [8] it was 54.1 µM; in test [9], 15 µM; in test [10], 48.3 µM; in test [11] it was 4 µM; in test [12], more than 100 µM. Besides, the TGI is 27.6 µM in test [13]; more than 100 µM in [14]; more than 100 µM in test [15]; 22.5 µM in test [16]; 23.5 µM in [17]; 29 µM in test [18].
`O=C1/C(=C/c2ccccc2S)N=C(c2ccccc2)N1c1nc2c(Cl)cc(Cl)cc2s1`: the TGI amounted to 54.3 µM in test [1]; 36 µM in test [2]; 36.5 µM in [3]; 40.1 µM in test [4]; 48.2 µM in [6]; 40.2 µM in [8]. Besides, the TGI in test [9] is 54.8 µM; in test [10] it was 72.4 µM; in [11], 40.8 µM; in test [12], 66 µM; in [13], 44.2 µM; in test [14], 34 µM. Further, the TGI was more than 100 µM in test [15], more than 100 µM in test [16], more than 100 µM in test [17] and 57.5 µM in test [18].
As to `COc1ccc(/C=C2\N=C(SC)N(CN3CCOCC3)C2=O)cc1`, the TGI in test [1], in test [2], in test [3], in test [4], in test [5] and in test [6] was more than 100 µM each time. The TGI in [7], in test [19], in [8], in [9], in test [10] and in test [12] was more than 100 µM each time. The TGI in test [13], in [14], in test [15], in test [16] and in [18] was more than 100 µM throughout.
Regarding `CCOC(=O)CN1C(=O)c2ccc(NC(=O)C(=O)O)cc2S1(=O)=O`, the TGI in [1], in test [2], in test [3], in test [4], in test [5] and in [6] was more than 100 µM throughout. Further, the TGI in [7], in [19], in test [9], in test [10], in test [12] and in [13] was more than 100 µM throughout. For the same compound, the TGI in [14], in [15], in test [16], in test [17] and in test [18] was more than 100 µM throughout.
With `NNC(=O)c1n[nH]nc1C(=O)NN`, the TGI in [1] was more than 100 µM; in [3] it was more than 100 µM; in test [4], 26.3 µM; in test [5], 33.1 µM; in test [6], more than 100 µM; in test [7], more than 100 µM. Besides, the TGI in [8], in test [9], in test [10], in [13], in test [14] and in test [16] was more than 100 µM throughout. Moreover, in test [17], the TGI is more than 100 µM.
In the case of `CC(=O)Oc1ccc2c(C)cc(=O)oc2c1OC(C)=O`, the TGI in [1] is more than 100 µM; in test [2] it was more than 100 µM; in [3] it was more than 100 µM; in [4], more than 100 µM; in test [5] it was 99.6 µM; in [6] it was more than 100 µM. For the same compound, the TGI in test [7], in [8], in test [9], in test [10], in test [11] and in [12] was more than 100 µM throughout. The TGI in test [13] is more than 100 µM; in test [14] it was more than 100 µM; in test [15] it was more than 100 µM; in [16], 84.9 µM; in test [17] it was more than 100 µM; in [18], more than 100 µM.
In the case of `CCOC(=O)NC(Nc1ccc(S(=O)(=O)Nc2nc(C)cc(C)n2)cc1)(C(=O)OCC)C(F)(F)F` (centres undefined), the TGI in test [1], in test [2], in test [3], in test [4], in test [5] and in [6] was more than 100 µM throughout. In addition, the TGI in test [7], in test [8], in test [9], in test [10], in test [11] and in test [12] was more than 100 µM in each case. The TGI was more than 100 µM in test [13]; 27.4 µM in test [14]; more than 100 µM in [15]; more than 100 µM in test [16]; more than 100 µM in [18].
For the compound `Cc1cc(S(=O)(=O)Nc2n[nH]c(N)n2)c(SCC(=O)O)cc1Cl`, the TGI in test [1], in [2], in test [3], in [4], in [5] and in [7] was more than 10 µM each time. Moreover, the TGI in test [19], in test [8], in test [9], in test [10], in test [11] and in test [12] was more than 10 µM each time. The TGI in [13], in test [14], in test [15], in test [16] and in test [17] was more than 10 µM each time.
Regarding `CCC(C)OC(=O)/C(Br)=C1/OC(=O)c2ccccc2-c2ccccc21` (centres undefined), the TGI in test [1] was more than 100 µM; in test [2], more than 100 µM; in test [3], 36.6 µM; in test [4], 84.5 µM; in test [5], 80.6 µM; in test [6], more than 100 µM. The TGI is more than 100 µM in test [7]; 44.3 µM in [19]; more than 100 µM in test [8]; more than 100 µM in test [9]; more than 100 µM in test [10]; 52.2 µM in [11]. Besides, the TGI in test [12] was more than 100 µM; in test [13] it was more than 100 µM; in test [15], more than 100 µM; in test [16] it was 43.2 µM; in test [17] it was more than 100 µM; in [18] it was 57.5 µM.
With `CC(C)C(=O)OCC1OC(n2c(Br)nc3c(=O)[nH]c(N)nc32)C(OC(=O)C(C)C)C1OC(=O)C(C)C` (centres undefined), the TGI in [1] was more than 100 µM; in test [2], more than 100 µM; in test [3], more than 100 µM; in [4] it was 40.3 µM; in test [5], more than 100 µM; in test [19], more than 100 µM. The TGI is more than 100 µM in test [8]; more than 100 µM in test [9]; 56.7 µM in test [10]; more than 100 µM in test [12]; more than 100 µM in test [13]; more than 100 µM in test [14]. In addition, the TGI in [15], in test [17] and in [18] was more than 100 µM throughout.
With `COC(=O)/C=C(\C)CC(O)/C=C(\C)CCC=C(C)C` (centres undefined), the TGI in test [1] was more than 100 µM; in test [2], more than 100 µM; in [3] it was more than 100 µM; in [4], 59.2 µM; in test [5], more than 100 µM; in [7], 74.9 µM. In addition, the TGI in test [8] is 87.7 µM; in test [9] it was more than 100 µM; in [10] it was more than 100 µM; in test [11], more than 100 µM; in test [12], more than 100 µM; in [13], more than 100 µM. Moreover, the TGI in [14] is 68.2 µM; in [15], more than 100 µM; in test [16] it was more than 100 µM; in [17], more than 100 µM; in test [18] it was more than 100 µM.
As to `COc1cc2c(C)cc(O)cc2c2cc(O)c(C)cc12`, the TGI in test [1] came to 23.8 µM; in [2] it was 22.6 µM; in test [3], 20.7 µM; in test [4] it was 45.8 µM; in test [6], 19.2 µM; in test [7], 21.5 µM. The TGI in test [19] worked out at 27.3 µM; in [8], 22.3 µM; in test [9], 24.3 µM; in test [10], 23.8 µM; in [11], 19.1 µM; in test [12], 23.8 µM. The TGI in [13] turned out to be 19.8 µM; in test [14], 6.18 µM; in test [15], 19.8 µM; in test [16] it was 23.8 µM; in [17] it was 22.8 µM; in test [18], 22.3 µM.
For `CC1CCC(=O)C(C(=O)CC2CC(=O)N(C)C(=O)C2)C1` (centres undefined), the TGI in test [1], in [2], in [3], in test [4], in test [5] and in test [6] was more than 100 µM throughout. The TGI in test [7], in test [19], in test [8], in [9], in test [10] and in [11] was more than 100 µM each time. Also, the TGI in test [12], in test [13], in test [15], in test [16], in test [17] and in [18] was more than 100 µM each time.
On to `N#Cc1c(-c2ccc(Cl)cc2Cl)nc2[nH][nH]c(=S)n2c1=O`, for which the TGI in [1], in test [2], in test [3], in test [4], in test [5] and in test [6] was more than 100 µM each time. For the same compound, the TGI in test [7], in test [19], in test [9], in test [10], in [12] and in test [13] was more than 100 µM throughout. The TGI in test [14], in test [15], in test [16], in test [17] and in test [18] was more than 100 µM throughout.
`CC#CCOC(=O)c1ccccc1OC(C)=O`: the TGI in test [2], in test [3], in test [6], in [7], in test [19] and in test [9] was more than 100 µM each time. Moreover, the TGI in test [10], in [11], in test [12], in test [13], in [14] and in test [15] was more than 100 µM each time. The TGI in [16], in test [17] and in [18] was more than 100 µM throughout.
